We go through twelve molecules from US20250064941A1, “SIGLEC LIGANDS, CONJUGATES, AND METHODS OF USE THEREOF” (Osprey Biopharmaceuticals, Inc., priority 2023, published 2025).

For assay [1], the target named is T1, mouse Siglec-2-Fc-Avi (CD22) (Mus musculus, UniProt P35329).
T1 construct: made in house
T1 sequence (P35329 22-708 limits assumed): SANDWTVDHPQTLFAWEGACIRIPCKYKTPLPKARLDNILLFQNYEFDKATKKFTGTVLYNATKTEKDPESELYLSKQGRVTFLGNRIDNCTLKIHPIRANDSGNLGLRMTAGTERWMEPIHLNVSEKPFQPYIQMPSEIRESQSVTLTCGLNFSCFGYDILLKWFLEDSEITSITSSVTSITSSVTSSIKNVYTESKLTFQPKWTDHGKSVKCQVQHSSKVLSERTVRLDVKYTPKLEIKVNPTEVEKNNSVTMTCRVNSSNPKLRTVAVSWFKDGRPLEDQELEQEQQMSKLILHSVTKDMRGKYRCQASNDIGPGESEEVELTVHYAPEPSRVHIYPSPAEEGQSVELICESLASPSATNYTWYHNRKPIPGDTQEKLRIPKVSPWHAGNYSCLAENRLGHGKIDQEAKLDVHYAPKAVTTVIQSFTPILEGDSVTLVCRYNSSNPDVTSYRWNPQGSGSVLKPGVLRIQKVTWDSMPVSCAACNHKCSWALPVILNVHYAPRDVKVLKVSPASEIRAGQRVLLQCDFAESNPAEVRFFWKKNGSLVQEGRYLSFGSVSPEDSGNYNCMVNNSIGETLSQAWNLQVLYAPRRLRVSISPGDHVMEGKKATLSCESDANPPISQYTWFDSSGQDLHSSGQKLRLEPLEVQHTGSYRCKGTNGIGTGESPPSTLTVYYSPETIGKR
As to the kind of experiment: SPR binding affinity to mouse CD22. Particulars: steady-state analysis. The method, boiled down: (§1)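 Steady-state fits gave the affinities. Before capture on a streptavidin surface, biotinylated CD22 had native sialic acids stripped (SialoExo, 4 hours, 37° C.). Running buffer: 10 mM HEPES pH 7.5, 150 mM NaCl, 0.05% Tween-20, 1% DMSO, with DMSO solvent correction.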
(In general: Surface plasmon resonance follows binding to a sensor surface in real time, without labels.)

Assay [2] concerns the target T2, human Siglec-2/CD22 protein (Homo sapiens, UniProt P20273).
T2 construct: purchased Acro Biosystems SI2-H82E3
T2 sequence (P20273 20-847): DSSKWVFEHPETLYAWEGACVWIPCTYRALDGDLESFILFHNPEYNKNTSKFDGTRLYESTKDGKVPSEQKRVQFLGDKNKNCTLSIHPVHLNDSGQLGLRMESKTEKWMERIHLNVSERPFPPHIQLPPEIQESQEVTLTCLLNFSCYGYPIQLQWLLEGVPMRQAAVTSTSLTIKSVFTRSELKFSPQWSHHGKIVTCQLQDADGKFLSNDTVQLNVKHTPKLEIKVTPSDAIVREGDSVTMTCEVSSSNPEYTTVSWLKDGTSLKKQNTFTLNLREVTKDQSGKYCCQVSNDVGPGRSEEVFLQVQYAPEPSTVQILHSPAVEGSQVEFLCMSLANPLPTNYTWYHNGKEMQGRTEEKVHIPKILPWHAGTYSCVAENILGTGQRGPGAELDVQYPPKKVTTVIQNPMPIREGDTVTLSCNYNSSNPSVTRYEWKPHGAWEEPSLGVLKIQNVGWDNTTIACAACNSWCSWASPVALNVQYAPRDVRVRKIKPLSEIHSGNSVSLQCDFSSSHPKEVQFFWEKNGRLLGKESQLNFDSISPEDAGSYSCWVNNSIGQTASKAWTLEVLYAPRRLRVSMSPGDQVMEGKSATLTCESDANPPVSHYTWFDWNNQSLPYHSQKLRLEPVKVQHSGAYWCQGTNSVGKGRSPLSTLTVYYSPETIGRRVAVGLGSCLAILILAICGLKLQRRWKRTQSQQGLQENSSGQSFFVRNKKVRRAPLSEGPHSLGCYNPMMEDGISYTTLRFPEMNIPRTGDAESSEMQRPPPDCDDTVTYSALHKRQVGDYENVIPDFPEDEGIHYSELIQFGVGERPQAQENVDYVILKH
The assay can be described thus: SPR binding affinity to human CD22. Particulars: steady-state analysis. The method, boiled down: as §1

In assay [3] the target is cynomolgus Siglec-2/CD22 (Macaca fascicularis, UniProt A0A2K5WCZ6). As to the kind of experiment: biochemical. Particulars: SPR, steady-state analysis; read-out: Affinity cyno CD22. In kind it is binding. The method, boiled down:
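Compound binding measured by steady-state SPR analysis, 120 s dissociation, in HEPES-NaCl-Tween buffer pH 7.5 containing 1% DMSO, DMSO solvent-corrected. Surface: cyno CD22, sialic acids first stripped by SialoExo for 4 h at 37° C., then amine-coupled onto CM5.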

A value given as a limit tells only on which side of the number the result lay.

Chain of cynomolgus Siglec-2/CD22 (A0A2K5WCZ6 entry or part of it): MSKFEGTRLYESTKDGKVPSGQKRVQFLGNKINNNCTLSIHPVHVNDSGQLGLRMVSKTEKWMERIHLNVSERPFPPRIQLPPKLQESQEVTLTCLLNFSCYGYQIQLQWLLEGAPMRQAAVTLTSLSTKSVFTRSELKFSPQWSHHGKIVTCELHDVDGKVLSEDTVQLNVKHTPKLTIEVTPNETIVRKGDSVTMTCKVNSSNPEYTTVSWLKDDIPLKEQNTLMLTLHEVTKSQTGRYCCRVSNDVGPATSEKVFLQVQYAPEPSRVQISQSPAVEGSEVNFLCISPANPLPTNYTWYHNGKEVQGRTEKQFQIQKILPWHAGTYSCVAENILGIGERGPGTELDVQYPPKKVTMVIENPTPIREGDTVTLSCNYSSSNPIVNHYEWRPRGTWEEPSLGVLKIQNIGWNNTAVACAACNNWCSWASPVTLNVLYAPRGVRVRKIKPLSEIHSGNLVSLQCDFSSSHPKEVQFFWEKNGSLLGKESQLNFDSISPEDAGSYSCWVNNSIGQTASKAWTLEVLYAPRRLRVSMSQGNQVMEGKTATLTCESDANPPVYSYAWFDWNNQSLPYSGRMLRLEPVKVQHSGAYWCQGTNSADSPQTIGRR

For `C#Cc1ccc(CO[C@]2(C(=O)O)C[C@H](O)[C@@H](NC(=O)CO)[C@H]([C@H](O)[C@H](O)CNC(=O)Cc3cccc(O)c3)O2)cc1` [Compound 142, (2R,4S,5R,6R)-6-((1R,2R)-1,2-dihydroxy-3-(2-(3-hydroxyphenyl)acetamido)propyl)-2-((4-ethynylbenzyl)oxy)-4-hydroxy-5-(2-hydroxyacetamido)tetrahydro-2H-pyran-2-carboxylic acid], the Kd in assay [1], in assay [2] and in assay [3] was less than 1000 nM each time.

With `CC(=O)NCCOCCOCCOCCOCCC(=O)NCCCCCCO[C@]1(C(=O)O)C[C@H](O)[C@@H](NC(=O)CO)[C@H]([C@H](O)[C@H](O)CNC(=O)Cc2ccc(-c3nnn[nH]3)cc2)O1` [Cpd. 235, (2R,4S,5R,6R)-6-((1R,2R)-3-(2-(4-(1H-tetrazol-5-yl)phenyl)acetamido)-1,2-dihydroxypropyl)-2-((2,18-dioxo-6,9,12,15-tetraoxa-3,19-diazapentacosan-25-yl)oxy)-4-hydroxy-5-(2-hydroxyacetamido)tetrahydro-2H-pyran-2-carboxylic acid], the Kd in assay [1], in assay [2] and in assay [3] was less than 1000 nM each time.

`CC(=O)NCCOCCOCCOCCOCCn1cc(CCCCCCO[C@]2(C(=O)O)C[C@H](O)[C@@H](NC(=O)CO)[C@H]([C@H](O)[C@H](O)CNC(=O)Cc3ccc(C(F)F)cc3)O2)nn1` [Compound 253, (2R,4S,5R,6R)-6-((1R,2R)-3-(2-(4-(difluoromethyl)phenyl)acetamido)-1,2-dihydroxypropyl)-4-hydroxy-5-(2-hydroxyacetamido)-2-((6-(1-(2-oxo-6,9,12,15-tetraoxa-3-azaheptadecan-17-yl)-1H-1,2,3-triazol-4-yl)hexyl)oxy)tetrahydro-2H-pyran-2-carboxylic acid]: the Kd in assay [1], in assay [2] and in assay [3] was less than 1000 nM in each case.

Turning to `C#CCCCCNC(=O)CCCCCCO[C@]1(C(=O)O)C[C@H](O)[C@@H](NC(=O)CO)[C@H]([C@H](O)[C@H](O)CNC(=O)Cc2ccc(Cl)cc2)O1` [Compound 96, (2R,4S,5R,6R)-6-((1R,2R)-3-(2-(4-chlorophenyl)acetamido)-1,2-dihydroxypropyl)-2-((7-(hex-5-yn-1-ylamino)-7-oxoheptyl)oxy)-4-hydroxy-5-(2-hydroxyacetamido)tetrahydro-2H-pyran-2-carboxylic acid], the Kd in assay [1], in assay [2] and in assay [3] was less than 1000 nM throughout.

As for `C#CCOCCCCCCO[C@]1(C(=O)O)C[C@H](O)[C@@H](NC(=O)CO)[C@H]([C@H](O)[C@H](O)CNC(=O)Cc2ccc3cc[nH]c3c2)O1` [Compound 5, (2R,4S,5R,6R)-6-((1R,2R)-3-(2-(1H-indol-6-yl)acetamido)-1,2-dihydroxypropyl)-4-hydroxy-5-(2-hydroxyacetamido)-2-((6-(prop-2-yn-1-yloxy)hexyl)oxy)tetrahydro-2H-pyran-2-carboxylic acid], the values for the Kd in assay [1], in assay [2] and in assay [3] were 1000 to 10000 nM, less than 1000 nM and less than 1000 nM, respectively.

`O=C(O)CCCCCCCCCCCCCCCO[C@]1(C(=O)O)C[C@H](O)[C@@H](NC(=O)CO)[C@H]([C@H](O)[C@H](O)CNC(=O)Cc2ccc(Cl)cc2)O1` [Compound 99, (2R,4S,5R,6R)-2-((15-carboxypentadecyl)oxy)-6-((1R,2R)-3-(2-(4-chlorophenyl)acetamido)-1,2-dihydroxypropyl)-4-hydroxy-5-(2-hydroxyacetamido)tetrahydro-2H-pyran-2-carboxylic acid]: the Kd in assay [1], in assay [2] and in assay [3] was less than 1000 nM in each case.

As to `O=C(O)CCCCCCCO[C@]1(C(=O)O)C[C@H](O)[C@@H](NC(=O)CO)[C@H]([C@H](O)[C@H](O)CNC(=O)Cc2ccc(Cl)cc2)O1` [Compound 97, (2R,4S,5R,6R)-2-((7-carboxyheptyl)oxy)-6-((1R,2R)-3-(2-(4-chlorophenyl)acetamido)-1,2-dihydroxypropyl)-4-hydroxy-5-(2-hydroxyacetamido)tetrahydro-2H-pyran-2-carboxylic acid], the Kd in assay [1], in assay [2] and in assay [3] was less than 1000 nM each time.

As for `C#CCNc1c(NCCCCCCO[C@]2(C(=O)O)C[C@H](O)[C@@H](NC(=O)CO)[C@H]([C@H](O)[C@H](O)CNC(=O)Cc3ccc(Cl)cc3)O2)c(=O)c1=O` [Compound 112, (2R,4S,5R,6R)-6-((1R,2R)-3-(2-(4-chlorophenyl)acetamido)-1,2-dihydroxypropyl)-2-((6-((3,4-dioxo-2-(prop-2-yn-1-ylamino)cyclobut-1-en-1-yl)amino)hexyl)oxy)-4-hydroxy-5-(2-hydroxyacetamido)tetrahydro-2H-pyran-2-carboxylic acid], the Kd in assay [1], in assay [2] and in assay [3] was less than 1000 nM throughout.

Turning to `C#CCCCCCCO[C@]1(C(=O)O)C[C@H](O)[C@@H](NC(=O)CO)[C@H]([C@H](O)[C@H](O)CNC(=O)c2cccc(Oc3ccccc3)c2)O1` [Compound 40, (2R,4S,5R,6R)-6-((1R,2R)-1,2-dihydroxy-3-(3-phenoxybenzamido)propyl)-4-hydroxy-5-(2-hydroxyacetamido)-2-(oct-7-yn-1-yloxy) tetrahydro-2H-pyran-2-carboxylic acid], the Kd was 1000 to 10000 nM in assay [1], less than 1000 nM in assay [2] and less than 1000 nM in assay [3].

Regarding `O=C(O)CCCO[C@]1(C(=O)O)C[C@H](O)[C@@H](NC(=O)CO)[C@H]([C@H](O)[C@H](O)CNC(=O)Cc2ccc(Cl)cc2)O1` [Compound 118, (2R,4S,5R,6R)-2-(3-carboxypropoxy)-6-((1R,2R)-3-(2-(4-chlorophenyl)acetamido)-1,2-dihydroxypropyl)-4-hydroxy-5-(2-hydroxyacetamido)tetrahydro-2H-pyran-2-carboxylic acid], the values for the Kd in assay [1], in assay [2] and in assay [3] were greater than 10000 nM, 1000 to 10000 nM and 1000 to 10000 nM, respectively.

For `C#CCCCCCCS[C@]1(C(=O)O)C[C@H](O)[C@@H](NC(=O)CO)[C@H]([C@H](O)[C@H](O)CNC(=O)Cc2ccc(-c3ccc(O)cc3)cc2)O1` [Compound 49, (2S,4S,5R,6R)-6-((1R,2R)-1,2-dihydroxy-3-(2-(4′-hydroxy-[1,1′-biphenyl]-4-yl)acetamido)propyl)-4-hydroxy-5-(2-hydroxyacetamido)-2-(oct-7-yn-1-ylthio)tetrahydro-2H-pyran-2-carboxylic acid], the Kd in assay [1], in assay [2] and in assay [3] was less than 1000 nM in each case.

In the case of `C#CCOCCCCCCO[C@]1(C(=O)O)C[C@H](O)[C@@H](NCC(=O)NC)[C@H]([C@H](O)[C@H](O)CNC(=O)Cc2ccc(Cl)cc2)O1` [Compound 181, (2R,4S,5R,6R)-6-((1R,2R)-3-(2-(4-chlorophenyl)acetamido)-1,2-dihydroxypropyl)-4-hydroxy-5-((2-(methylamino)-2-oxoethyl)amino)-2-((6-(prop-2-yn-1-yloxy)hexyl)oxy)tetrahydro-2H-pyran-2-carboxylic acid], the Kd in assay [1], in assay [2] and in assay [3] was 1000 to 10000 nM in each case.
